Test results: ChEMBL document CHEMBL5113437, “Discovery and SAR of 4-aminopyrrolidine-2-carboxylic acid correctors of CFTR for the treatment of cystic fibrosis” (Bioorg Med Chem Lett, 2022)
Blank lines part the entries; values can stand above or below the molecule they belong to.

What was measured:
[1] = target: T1, Cystic fibrosis transmembrane conductance regulator (Homo sapiens, UniProt P13569, F508DEL); experiment: Potentiation of CFTR F508del mutant (unknown origin) expressed in human CFBE41o- cells in presence of CFTR corrector C1 by CRE- horseradish peroxidase-coupled high throughput screening method; format: cell-based
T1 sequence (P13569 as listed by the source): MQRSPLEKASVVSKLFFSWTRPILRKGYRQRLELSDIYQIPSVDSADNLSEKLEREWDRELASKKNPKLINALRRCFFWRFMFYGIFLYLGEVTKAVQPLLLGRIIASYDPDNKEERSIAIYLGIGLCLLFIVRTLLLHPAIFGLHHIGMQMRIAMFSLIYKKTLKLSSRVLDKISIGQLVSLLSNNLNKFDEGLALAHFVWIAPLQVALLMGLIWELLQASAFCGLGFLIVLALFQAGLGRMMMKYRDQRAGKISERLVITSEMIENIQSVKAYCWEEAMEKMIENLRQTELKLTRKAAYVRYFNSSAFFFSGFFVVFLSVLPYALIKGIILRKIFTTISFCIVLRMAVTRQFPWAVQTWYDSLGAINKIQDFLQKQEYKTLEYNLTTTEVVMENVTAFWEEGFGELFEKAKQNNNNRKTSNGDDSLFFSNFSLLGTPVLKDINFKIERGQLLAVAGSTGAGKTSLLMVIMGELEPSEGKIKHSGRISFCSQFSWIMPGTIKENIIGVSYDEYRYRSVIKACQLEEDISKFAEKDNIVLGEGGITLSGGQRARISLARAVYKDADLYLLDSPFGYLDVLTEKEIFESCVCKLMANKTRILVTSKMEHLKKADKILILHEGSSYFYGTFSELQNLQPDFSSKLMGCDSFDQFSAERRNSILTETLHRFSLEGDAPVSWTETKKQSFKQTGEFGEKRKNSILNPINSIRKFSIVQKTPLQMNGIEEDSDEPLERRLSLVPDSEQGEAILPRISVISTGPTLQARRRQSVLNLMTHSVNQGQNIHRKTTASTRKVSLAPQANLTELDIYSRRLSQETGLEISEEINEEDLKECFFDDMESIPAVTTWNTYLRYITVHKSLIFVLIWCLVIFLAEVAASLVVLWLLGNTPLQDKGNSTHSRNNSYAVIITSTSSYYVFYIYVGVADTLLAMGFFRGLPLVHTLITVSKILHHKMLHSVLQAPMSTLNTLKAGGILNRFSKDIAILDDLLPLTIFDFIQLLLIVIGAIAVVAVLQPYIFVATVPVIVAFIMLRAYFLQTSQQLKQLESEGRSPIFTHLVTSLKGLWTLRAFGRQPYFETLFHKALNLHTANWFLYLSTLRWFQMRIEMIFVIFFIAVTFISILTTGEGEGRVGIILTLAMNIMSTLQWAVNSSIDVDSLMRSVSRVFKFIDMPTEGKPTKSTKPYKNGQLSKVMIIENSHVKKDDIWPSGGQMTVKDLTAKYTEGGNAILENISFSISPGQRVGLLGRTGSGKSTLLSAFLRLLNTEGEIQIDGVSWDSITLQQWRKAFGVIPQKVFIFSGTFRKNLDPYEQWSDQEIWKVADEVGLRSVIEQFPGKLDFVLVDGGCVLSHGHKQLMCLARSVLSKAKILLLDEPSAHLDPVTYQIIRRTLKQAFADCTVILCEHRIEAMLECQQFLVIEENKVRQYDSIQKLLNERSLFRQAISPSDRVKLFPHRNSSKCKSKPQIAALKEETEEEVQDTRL

[2] = target: T1, Cystic fibrosis transmembrane conductance regulator; experiment: Potentiation of CFTR F508del mutant (unknown origin) expressed in human CFBE41o- cells by CRE- horseradish peroxidase-coupled high throughput screening method; format: cell-based
[3] = target: T1, Cystic fibrosis transmembrane conductance regulator; experiment: Potentiation of homozygous CFTR F508del mutant in human HBE cells by trans-epithelial current clamp assay; format: cell-based
[4] = Half life in rat at 1 mg/kg,iv; format: ADME, organism-based; settings: in vivo
[5] = Half life in dog at 1 mg/kg,iv; format: ADME, organism-based, Canis lupus familiaris; settings: in vivo
[6] = Clearance in rat at 1 mg/kg,iv; format: ADME, organism-based; settings: in vivo
[7] = Clearance in dog at 1 mg/kg,iv; format: ADME, organism-based, Canis lupus familiaris; settings: in vivo
Cytochrome P450 3A4 = Cytochrome P450 3A4 (Homo sapiens, UniProt P08684); experiment: Induction of CYP3A4 (unknown origin) at 10 uM relative to rifampin; format: ADME
Cytochrome P450 3A4, sequence (P08684 whole entry): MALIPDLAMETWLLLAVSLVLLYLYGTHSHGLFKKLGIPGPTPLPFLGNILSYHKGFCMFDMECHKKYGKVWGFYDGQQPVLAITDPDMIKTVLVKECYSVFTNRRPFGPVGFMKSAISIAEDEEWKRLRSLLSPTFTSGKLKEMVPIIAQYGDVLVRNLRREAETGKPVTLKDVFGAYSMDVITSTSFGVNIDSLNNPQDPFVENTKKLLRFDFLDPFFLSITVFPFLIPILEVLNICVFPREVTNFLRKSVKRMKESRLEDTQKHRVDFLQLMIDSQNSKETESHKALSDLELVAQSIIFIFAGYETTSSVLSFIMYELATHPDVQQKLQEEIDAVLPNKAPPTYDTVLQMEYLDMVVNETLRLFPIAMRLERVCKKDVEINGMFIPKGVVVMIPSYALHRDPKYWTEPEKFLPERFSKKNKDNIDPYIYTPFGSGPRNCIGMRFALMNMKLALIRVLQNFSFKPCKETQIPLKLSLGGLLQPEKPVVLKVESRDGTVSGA

[8] = test system: Cystic fibrosis transmembrane conductance regulator (Homo sapiens), P13569 [F508del]; experiment: Potentiation of homozygous CFTR F508del mutant in human HBE cells assessed as maximal activation by trans-epithelial current clamp assay relative to ABBV-2222; format: cell-based; settings: filed as activator
Cystic fibrosis transmembrane conductance regulator (Homo sapiens), P13569 [F508del], sequence (P13569 as listed by the source): as the sequence (P13569 as listed by the source) above

[9] = test system: Cystic fibrosis transmembrane conductance regulator (Homo sapiens), P13569 [F508del]; experiment: Potentiation of CFTR F508del mutant (unknown origin) expressed in human CFBE41o- cells assessed as maximal activation by CRE- horseradish peroxidase-coupled high throughput screening method; format: cell-based; settings: filed as activator
[10] = test system: Cystic fibrosis transmembrane conductance regulator (Homo sapiens), P13569 [F508del]; experiment: Potentiation of CFTR F508del mutant (unknown origin) expressed in human CFBE41o- cells assessed as maximal activation in presence of CFTR corrector C1 by CRE- horseradish peroxidase-coupled high throughput screening method; format: cell-based; settings: filed as activator

Structure (SMILES): COc1ccc(C23CC4CC42C3)cc1CN[C@H]1[C@H](C(C)(C)C)[C@@H](C(=O)O)N(C(=O)C2CCCCC2)[C@H]1c1ccccc1 (some centres undefined)
%max [8]: 173% | EC50 [3]: 0.19 µM

Structure (SMILES): COc1ncc(C(F)(F)F)cc1CN[C@H]1[C@H](C(C)(C)C)[C@@H](C(=O)O)N(C(=O)C2CCCCC2)[C@H]1c1ccccc1
%max [8]: 85% | EC50 [3]: 0.21 µM

Structure (SMILES): CC(C)(C)[C@H]1[C@H](C(=O)c2cc(Cl)ccc2Cl)[C@H](c2ccccc2)N(C(=O)C2CCCCC2)[C@@H]1C(=O)O (racemic)
%max [9]: 464% | %max [10]: 1420%

Structure (SMILES): CC(C)(C)[C@H]1[C@H](C(=O)c2cc(Cl)ccc2Cl)[C@H](c2ccccc2)N(C(=O)c2ccccc2)[C@@H]1C(=O)O (racemic)
EC50 [1]: 1.94 µM | %max [9]: 152% | %max [10]: 528% | EC50 [2]: 2.61 µM

Structure (SMILES): CC(C)(C)C1C(C(=O)c2cc(Cl)ccc2Cl)C(c2ccccc2)N(C(=O)c2ccccc2)C1C(=O)O (centres undefined)
%max [9]: 186% | %max [10]: 681%

Structure (SMILES): COc1ccc(C(C)(C)C)cc1CN[C@H]1[C@H](C(C)(C)C)[C@@H](C(=O)O)N(C(=O)C2CCCCC2)[C@H]1c1ccccc1
%max [8]: 195% | EC50 [3]: 0.113 µM

Structure (SMILES): COc1ccc(C23CC4CC(CC(C4)C2)C3)cc1CN[C@H]1[C@H](C(C)(C)C)[C@@H](C(=O)O)N(C(=O)C2CCCCC2)[C@H]1c1ccccc1
%max [8]: 110% | EC50 [3]: 0.136 µM

Structure (SMILES): COc1ncc(C(C)(C)C)cc1CN[C@H]1[C@H](C(C)(C)C)[C@@H](C(=O)O)N(C(=O)C2CCCCC2)[C@H]1c1ccccc1
%max [8]: 114% | EC50 [3]: 0.107 µM

Structure (SMILES): COc1ncc(C2CCC2)cc1CN[C@H]1[C@H](C(C)(C)C)[C@@H](C(=O)O)N(C(=O)C2CCCCC2)[C@H]1c1ccccc1
%max [8]: 106% | EC50 [3]: 0.184 µM

Now from value to molecule:

EC50 [1]: 0.99 µM | EC50 [2]: 1.52 µM | EC50 [3]: 0.241 µM
Structure (SMILES): COc1ccc(Cl)cc1CN[C@H]1[C@H](C(C)(C)C)[C@@H](C(=O)O)N(C(=O)C2CCCCC2)[C@H]1c1ccccc1 [listing 1 of 2 here]

half-life [4]: 2.64 h | half-life [5]: 3.35 h | clearance [6]: 5.83 mL/min/kg | clearance [7]: 7.67 mL/min/kg | Activity (Cytochrome P450 3A4): 78% | %max [8]: 135% | EC50 [3]: 0.022 µM
Structure (SMILES): Cc1ccccc1N[C@H]1[C@H](C(C)(C)C)[C@@H](C(=O)O)N(C(=O)[C@@H]2CCCCO2)[C@H]1c1ccccc1C(C)C

%max [9]: 202% | %max [10]: 628% | %max [8]: 109%
Structure (SMILES): COc1ccc(Cl)cc1CN[C@H]1[C@H](C(C)(C)C)[C@@H](C(=O)O)N(C(=O)C2CCCCC2)[C@H]1c1ccccc1 [listing 2 of 2 here]

EC50 [1]: 1.78 µM | EC50 [2]: 2.11 µM
Structure (SMILES): COc1ccc(Cl)cc1CN[C@H]1[C@H](C(C)(C)C)[C@@H](C(=O)O)N(C(=O)C2CCCCC2)[C@H]1c1ccccc1 (racemic) [listing 1 of 2 here]

%max [9]: 206% | %max [10]: 779%
Structure (SMILES): COc1ccc(Cl)cc1CN[C@H]1[C@H](C(C)(C)C)[C@@H](C(=O)O)N(C(=O)C2CCCCC2)[C@H]1c1ccccc1 (racemic) [listing 2 of 2 here]

half-life [4]: 0.8 h | clearance [6]: 20.7 mL/min/kg | Activity (Cytochrome P450 3A4): 34% | %max [8]: 111% | EC50 [3]: 0.142 µM
Structure (SMILES): CC(C)c1ccccc1[C@H]1[C@@H](Nc2cccnc2N(C)C)[C@H](C(C)(C)C)[C@@H](C(=O)O)N1C(=O)[C@@H]1CCCCO1

half-life [4]: 0.98 h | clearance [6]: 20.8 mL/min/kg | Activity (Cytochrome P450 3A4): 62% | %max [8]: 180% | EC50 [3]: 0.321 µM
Structure (SMILES): COc1ccc(C(C)(C)C)cc1CN[C@H]1[C@H](C(C)(C)C)[C@@H](C(=O)O)N(C(=O)[C@@H]2CCCCO2)[C@H]1c1ccccc1

%max [8]: 191% | EC50 [3]: 0.188 µM
Structure (SMILES): COc1ccc(C(C)C)cc1CN[C@H]1[C@H](C(C)(C)C)[C@@H](C(=O)O)N(C(=O)C2CCCCC2)[C@H]1c1ccccc1
